# Reference: patent US12150995B2, “IRAK degraders and uses thereof” (Kymera Therapeutics, Inc., priority 2020, dated 2024)
# Molecular target: T1, IRAK4 (Homo sapiens, UniProt Q9NWZ3)
# T1 construct: endogenous in cells; host or cells: OCI-LY10
# T1 sequence (Q9NWZ3 1-460): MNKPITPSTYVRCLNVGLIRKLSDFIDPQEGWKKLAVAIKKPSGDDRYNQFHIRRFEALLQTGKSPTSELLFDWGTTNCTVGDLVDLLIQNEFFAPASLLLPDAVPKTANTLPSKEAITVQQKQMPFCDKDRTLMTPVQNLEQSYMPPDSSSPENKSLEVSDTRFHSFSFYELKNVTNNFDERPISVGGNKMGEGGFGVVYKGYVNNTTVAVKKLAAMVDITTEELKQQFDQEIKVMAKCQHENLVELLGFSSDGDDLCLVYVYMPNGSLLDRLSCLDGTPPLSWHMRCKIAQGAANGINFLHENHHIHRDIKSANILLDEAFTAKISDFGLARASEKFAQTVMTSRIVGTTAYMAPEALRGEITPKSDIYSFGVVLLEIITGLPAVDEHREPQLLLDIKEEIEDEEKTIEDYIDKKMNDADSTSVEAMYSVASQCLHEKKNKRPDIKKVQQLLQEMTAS
# Assay: IRAK4 MSD Degradation in OCI-LY10
# Type: cell-based
# Conditions: OCI-LY10 cells, Meso Scale Discovery, incubated 4 to 24 hours
# Summary of the method: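 OCI-LY10 cells (300,000/well) exposed to an 8-point 1:3 series from a top concentration of 1 to 10 μM for 4 to 24 h at 37 °C. IRAK4 remaining in RIPA lysates quantified by MSD sandwich immunoassay; DC50 from a three-parameter logistic fit.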
row,SMILES,DC50 [nM]
1,Cc1c(C2CCN(C[C@H]3CC[C@H](n4cc5cc(NC(=O)c6cccc(C(F)(F)F)n6)ncc5n4)CC3)CC2)ccc2c1n(C)c(=O)n2C1CCC(=O)NC1=O (some centres unmarked) [I-210],> 200
2,COc1cc2nc([C@H]3CC[C@H](CN(C)CCNc4cccc5c4C(=O)N(C4CCC(=O)NC4=O)C5=O)CC3)sc2cc1NC(=O)c1cncc(F)c1 (some centres unmarked) [I-481],> 200
3,Cn1c(=O)n(C2CCC(=O)NC2=O)c2ccc(Cl)c(C3CCN(C[C@H]4C[C@H](n5cc6cc(NC(=O)c7cccc(C(F)(F)F)n7)ccc6n5)C4)CC3)c21 (some centres unmarked) [I-150],100 to 200
4,COc1cc2nn([C@H]3CC[C@H](CN4CCC5(CC4)CC(Nc4cccc6c4C(=O)N(C4CCC(=O)NC4=O)C6=O)C5)CC3)cc2cc1NC(=O)c1cnn2cccnc12 (some centres unmarked) [I-13],< 10
5,CC(C)Nc1cc(-n2ccc3cc(C(F)(F)F)cnc32)ncc1C(=O)N[C@H]1CC[C@H](CN2CCN(c3cccc4c3n(C)c(=O)n4C3CCC(=O)NC3=O)CC2)CC1 (some centres unmarked) [I-369],100 to 200
6,Cn1c(=O)n(C2CCC(=O)NC2=O)c2cccc(C3CCN(C[C@H]4CC[C@H](n5cc6cc(NC(=O)c7cccc(C(F)(F)F)n7)c(N7CCOCC7)cc6n5)CC4)CC3)c21 (some centres unmarked) [I-38],< 10
7,"CN(CCn1cc2cc(NC(=O)c3cnn4cccnc34)c(F)cc2n1)C1CCN(c2cccc3c2n(C)c(=O)n3C2CCC(=O)NC2=O)CC1 (centres unmarked) [I-22, N-[2-[2-[[1-[1-(2,6-dioxo-3-piperidyl)-3-methyl-2-oxo-benzimidazol-4-yl]-4-piperidyl]-methyl-amino]ethyl]-6-fluoro-indazol-5-yl]pyrazolo[1,5-a] pyrimidine-3-carboxamide]",> 200
8,CC(C)Nc1c(C(=O)N[C@H]2CC[C@H](CN3CCC(c4cccc5c4n(C)c(=O)n5C4CCC(=O)NC4=O)CC3)CC2)cnc2c1Oc1cc(C#N)ccc1O2 (some centres unmarked) [I-309],< 10
9,COc1cc2nn([C@H]3CC[C@H](CN4C5CC4CN(c4cccc6c(N7CCC(=O)NC7=O)cncc46)C5)CC3)cc2cc1NC(=O)c1cccc(C(F)(F)F)n1 [I-220],< 10
10,Cc1cc2nn([C@H]3CC[C@H](CN4CCN(c5cccc6c5n(C)c(=O)n6C5CCC(=O)NC5=O)CC4)CC3)cc2cc1NC(=O)c1cncc(C(F)(F)F)n1 (some centres unmarked) [I-401],< 10
11,COc1cc2nn([C@H]3CC[C@H](CN4C[C@H]5C[C@@H]4CN5c4cccc5c(N6CCC(=O)NC6=O)cncc45)CC3)cc2cc1NC(=O)c1cccc(C(F)(F)F)n1 [I-155],10 to 50
12,CC(C)Nc1c(C(=O)N[C@H]2CC[C@H](CN3CCN(c4cccc5c4n(C)c(=O)n5C4CCC(=O)NC4=O)CC3)CC2)cnc2c1Oc1cc(C#N)ccc1O2 (some centres unmarked) [I-407],< 10
13,COc1cc2nn([C@H]3CC[C@H](CN4CCN(c5cccc6c(N7CCC(=O)NC7=O)cncc56)[C@@H](C)C4)CC3)cc2cc1NC(=O)c1cccc(C(F)(F)F)n1 [I-233],< 10
14,COc1cc2nn([C@H]3CC[C@H](CN4CCC(c5cccc6c5n(C)c(=O)n6C5CCC(=O)NC5=O)CC4)CC3)cc2cc1NC(=O)c1cc(Cl)cnn1 (some centres unmarked) [I-135],> 200
15,CC(C)(O)c1cc2nc([C@H]3CC[C@H](CN4CC5(CC(CCNc6cccc7c6C(=O)N(C6CCC(=O)NC6=O)C7=O)C5)C4)CC3)sc2cc1NC(=O)c1cncc(C#N)c1 (some centres unmarked) [I-461],10 to 50
16,CN(C[C@H]1CC[C@H](c2cc3cc(NC(=O)c4cccc(C(F)(F)F)n4)c(F)cc3n2C)CC1)C1CCN(c2cccc3c2n(C)c(=O)n3C2CCC(=O)NC2=O)CC1 (some centres unmarked) [I-59],> 200
17,COc1cc2nn([C@H]3CC[C@H](CN4CCC(c5cc(Cl)cc6c5n(C)c(=O)n6C5CCC(=O)NC5=O)CC4)CC3)cc2cc1NC(=O)c1cccc(C(F)(F)F)n1 (some centres unmarked) [I-36],< 10
18,CC(C)(O)c1cc2nc([C@H]3CC[C@H](CN4CCO[C@@H](CCCNc5cccc6c5C(=O)N(C5CCC(=O)NC5=O)C6=O)C4)CC3)sc2cc1NC(=O)c1cccc(C#N)n1 (some centres unmarked) [I-438],10 to 50

row,SMILES,DC50 [nM]
1,COc1cc2nc([C@H]3CC[C@H](CN(C)CCCCNc4cccc5c4C(=O)N(C4CCC(=O)NC4=O)C5=O)CC3)sc2cc1NC(=O)c1cccc(C(F)(F)F)n1 (some centres unmarked) [I-446],10 to 50
2,CC(C)Nc1cc(-n2ccc3cc(C(F)(F)F)cnc32)ncc1C(=O)N[C@H]1CC[C@H](CN2CCN(c3ccc4c(c3)n(C)c(=O)n4C3CCC(=O)NC3=O)CC2)CC1 (some centres unmarked) [I-374],> 200
3,COc1cc2nn([C@H]3CC[C@H](CN4CC5(CCN(c6cccc7c6n(C)c(=O)n7C6CCC(=O)NC6=O)CC5)C4)CC3)cc2cc1NC(=O)c1cncc(C#N)c1 (some centres unmarked) [I-206],< 10
4,Cc1cc2nn([C@H]3CC[C@H](CN4CCN(c5cccc6c5n(C)c(=O)n6C5CCC(=O)NC5=O)CC4(C)C)CC3)cc2cc1NC(=O)c1cccc(C(F)(F)F)n1 (some centres unmarked) [I-305],10 to 50
5,CC(C)(O)c1cc2nc([C@H]3CC[C@H](CN4CCN(CCNc5cccc6c5C(=O)N(C5CCC(=O)NC5=O)C6=O)CC4)CC3)sc2cc1NC(=O)c1cccc(C#N)n1 (some centres unmarked) [I-441],10 to 50
6,COc1cc2nn([C@H]3CC[C@H](CN4CCN(c5cccc6c5n(C5CC5)c(=O)n6C5CCC(=O)NC5=O)CC4)CC3)cc2cc1NC(=O)c1cccc(C(F)(F)F)n1 (some centres unmarked) [I-426],< 10
7,CC(C)Nc1cc(-n2ccc3cc(C#N)cnc32)ncc1C(=O)N[C@H]1CC[C@H](CN2CCN(c3cccc4c3n(C)c(=O)n4C3CCC(=O)NC3=O)CC2)CC1 (some centres unmarked) [I-361],< 10
8,COc1cc2nn([C@H]3CC[C@H](CN4CCC(c5ccc6c(c5Cl)n(C)c(=O)n6C5CCC(=O)NC5=O)CC4)CC3)cc2cc1NC(=O)c1cccc(C(F)(F)F)n1 (some centres unmarked) [I-177],< 10
9,O=C1CCN(c2cncc3cc(N4CCN(C[C@H]5CC[C@H](n6cc7cc(NC(=O)c8cccc(C(F)(F)F)n8)c(C(F)F)cc7n6)CC5)CC4)ccc23)C(=O)N1 [I-375],10 to 50
10,COc1cc2nn([C@H]3CC[C@H](CN4CCC(c5c(Cl)ccc6c5n(C)c(=O)n6C5CCC(=O)NC5=O)CC4)CC3)cc2cc1NC(=O)c1cccc(C(F)(F)F)n1 (some centres unmarked) [I-37],< 10
11,COc1cc(NC(=O)c2cccc(C(F)(F)F)n2)cc2cn([C@H]3CC[C@H](CN4CCN(c5cccc6c5n(C)c(=O)n6C5CCC(=O)NC5=O)CC4)CC3)nc12 (some centres unmarked) [I-218],< 10
12,Cn1c(=O)n(C2CCC(=O)NC2=O)c2cccc(C3CCN(C[C@H]4CC[C@H](n5cc6cc(NC(=O)c7cccc(C(F)(F)F)n7)ncc6n5)CC4)CC3)c21 (some centres unmarked) [I-62],< 10
13,CC(C)Nc1cc(-n2ccc3cc(C#N)cnc32)ncc1C(=O)N[C@H]1CC[C@H](CN2CCC(c3cccc4c3n(C)c(=O)n4C3CCC(=O)NC3=O)CC2)CC1 (some centres unmarked) [I-114],< 10
14,CC(=O)c1cc2nn([C@H]3CC[C@H](CN4CCN(c5cccc6c5n(C)c(=O)n6C5CCC(=O)NC5=O)CC4)CC3)cc2cc1NC(=O)c1cccc(C(F)(F)F)n1 (some centres unmarked) [I-412],< 10
15,CN(C[C@H]1CC[C@H](n2cc3cc(NC(=O)c4cccc(C(F)(F)F)n4)c(C(C)(C)O)cc3n2)CC1)C1CCN(c2ccc3c(N4CCC(=O)NC4=O)cncc3c2)CC1 [I-65],< 10
16,Cn1c(=O)n(C2CCC(=O)NC2=O)c2cccc(C3CCN(C[C@H]4CC[C@H](n5cc6cc(NC(=O)c7cccc(C(F)(F)F)n7)c(N7C[C@H]8C[C@@H]7CO8)cc6n5)CC4)CC3)c21 (some centres unmarked) [I-44],< 10
17,COc1cc2nn([C@H]3CC[C@H](CN4CCC5(CC4)CC(CCNc4cccc6c4C(=O)N(C4CCC(=O)NC4=O)C6=O)C5)CC3)cc2cc1NC(=O)c1cccc(C(F)(F)F)n1 (some centres unmarked) [I-9],50 to 100
